Test results as given in patent EP3018135A1, “A COMPOUND WITH ANTI-CARCINOGENIC EFFECT AND A METHOD FOR PRODUCTION OF THIS COMPOUND” (Ulusal Bor Arastirma Enstitusu, priority 2014, dated 2016).

Tests used:
K562 cells [1] = assay: Apoptotic effect by flow cytometry with Annexin V-FITC/7-AAD kit; format: cell-based
Text: (§1) In order to determine anti-carcinogenic effect of the inventive compound acute promyelocytic leukaemia (HL-60) and chronic myelogenous leukaemia (K-562) cells were used to prepare cancer cell cultures under suitable conditions. Both leukemic cell lines were subjected to the following methods: • Determination of cytotoxicity / MTT test; • Determination of apoptotic effect using flow cytometry device with Annexin V-FITC/7-AAD kit; • Determination of apoptotic effect using flow cytometry device with caspase-3/7 activation; • Determination of mitochondrial membrane integrity of cells using JC-1 dyeing method; • Determination of apoptotic DNA using DNA fragmentation method with agarose gel; • Determination of NF-kB and c-myc mRNA expression levels using real time PCR (polymerase chain reaction) method; • Gene panel study using RT-PCR method.

[2] = system: NF-kB and c-myc mRNA expression in HL-60 cells; assay: NF-kB and c-myc mRNA expression levels by real time PCR; format: cell-based; conditions: RT-PCR
Text: as §1

[3] = system: NF-kB and c-myc mRNA expression in K562 cells; assay: as above; format: cell-based; conditions: RT-PCR
Text: as §1

[4] = system: NF-kB in HCT116 colon cancer cells; conditions: cited from earlier work
[5] = system: NF-kB in HT-29 colon cancer cells; conditions: cited from earlier work
NF-kB in Caco2 cells = conditions: cited from earlier work
[6] = system: NF-kB levels in MM.1S cells; conditions: 12 nmol/mL, 12th and 24th hours of incubation, ELISA; cited from earlier work
HL-60 cells [7] = assay: Determination of cytotoxicity / MTT test; format: cell-based
Text: as §1

K562 cells [8] = assay: Determination of cytotoxicity / MTT test; format: cell-based
Text: as §1

HL-60 cell line = assay: Apoptotic effect by flow cytometry with Annexin V-FITC/7-AAD kit; format: cell-based
Text: as §1

HL-60 cells [9] = assay: Mitochondrial membrane integrity, JC-1 dyeing method; format: cell-based; conditions: 12.5 µM (increase starting from 1.5 µM)
Text: as §1

K562 cells [10] = assay: as above; format: cell-based; conditions: 12.5 µM
Text: as §1

K562 cells [11] = assay: Apoptotic effect by flow cytometry with caspase-3/7 activation; format: cell-based; conditions: 12.5 µM, 24 hours of incubation
Text: as §1

[12] = system: NFkB-1, p53, PIK3CA, BCL-3, ICAM1, KRAS and BCR genes in HL-60 cells; assay: Gene panel study by RT-PCR; format: cell-based; conditions: in comparison to control and Bortezomib groups, decrease more effective than in K562 cells
Text: as §1
(§2) The genes used in gene panel study with RT-PCR method include; NFKB-1, TNF, RELA, NMI, TP53, IL-6, TP53, PIK3CA, NFKB-2, BCL-3, NFKBIA, RELB, ICAM1, IL-8, KRAS, BCR, GAPDH.

[13] = system: NFkB-1, p53, PIK3CA, BCL-3, ICAM1, KRAS and BCR genes in K562 cells; assay: Gene panel study by RT-PCR; format: cell-based; conditions: in comparison to control and Bortezomib groups
Text: as §1, §2

Q: With `CC(C)C[C@H](NC(=O)[C@H](Cc1ccccc1)NC(=O)c1cnccn1)B(O)O` [Bortezomib, reference compound] as the molecule, how does the “early apoptotic cell ratio” value (K562 cells [1]; K562 cells, 3.12 µM, 24th hour) read?
A: 18.1%

Q: What about the “expression of NF-kB gene” value [2] of the same molecule?
A: decreases expression

Q: What about the “expression of NF-kB gene” value [3] of the same molecule?
A: decreases expression

Q: And the NF-kB inhibition [4]?
A: NF-kB inhibition was observed

Q: What about the NF-kB inhibition [5] of the same molecule?
A: NF-kB inhibition was observed

Q: And the NF-kB inhibition (NF-kB in Caco2 cells)?
A: not observed

Q: For `CC(C)C[C@H](NC(=O)CNC(=O)c1cc(Cl)ccc1Cl)B(O)O` [MLN2238], which NF-kB levels [6] is on record?
A: significant decreases

Q: With “(4-(2-amino-2-(10,11-dioxo-10,11-dihydro-5H-imidaso[1,5,4,3-lmn][1,10]phenanthrolin-5-il]ethyl]phenyl]boronic acid [inventive compound]” as the molecule, how does the IC50 (HL-60 cells [7]; 24th hour) read?
A: 2160 nM

Q: And the IC50 (HL-60 cells [7]; 48th hour)?
A: 2850 nM

Q: And the IC50 (K562 cells [8]; 24th hour)?
A: 2620 nM

Q: What about the IC50 (K562 cells [8]; 48th hour) of the same molecule?
A: 3410 nM

Q: What about the early apoptotic effect (HL-60 cell line; Annexin-V/7-AAD) of the same molecule?
A: has not displayed early apoptotic effect

Q: What about the necrotic cell rates (HL-60 cell line; concentrations of 3.12 µM and more, compared to control) of the same molecule?
A: increase compared to control

Q: What about the apoptotic cell ratio (K562 cells [1]; K562 cells, 1.5 µM) of the same molecule?
A: 13.7%

Q: What about the “early and late apoptotic cell rate” value (K562 cells [1]; K562 cells, 12.5 µM) of the same molecule?
A: 38.2%

Q: And the apoptotic effect (K562 cells [1]; K562 cells, 1.5, 3.12, 6.25 and 12.5 µM, 24th hour)?
A: increased the apoptotic effect

Q: And the “early-late apoptotic and necrotic cell rates” value (K562 cells [1]; K562 cells, concentrations of 6.5 and 12.5 µM, compared to control)?
A: increase compared to control

Q: What about the “ratio of JC-1 positive cells” value (HL-60 cells [9]) of the same molecule?
A: 37.1%

Q: And the “ratio of JC-1 positive cells” value (K562 cells [10])?
A: 14.7%

Q: What about the “increase in the ratio of caspase 3/7 positive cells, K562 cells in comparison to HL-60 cells” value (K562 cells [11]) of the same molecule?
A: 2 times

Q: And the c-myc expression [2]?
A: decreased

Q: And the “expression of NF-kB gene” value [2]?
A: decreases expression

Q: What about the “expression of NF-kB gene” value [3] of the same molecule?
A: decreases expression

Q: What about the c-myc expression ([3]; versus control group) of the same molecule?
A: higher than control group values

Q: And the “expression of NFkB-1, p53, PIK3CA, BCL-3, ICAM1, KRAS and BCR genes” value [12]?
A: decreases expression

Q: And the “expression of NFkB-1, p53, PIK3CA, BCL-3, ICAM1, KRAS and BCR genes” value [13]?
A: decreases expression
